Laboratory results reported in PMC6112376, “Comprehensive Analyses and Prioritization of Tox21 10K Chemicals Affecting Mitochondrial Function by in-Depth Mechanistic Studies” (Environmental Health Perspectives, 2018).
Counter-ions that a name gives are not always drawn. Like-named read-outs stand apart in the source and are kept apart here.

Key:
rat primary hepatocytes [1] = tested on: rat primary hepatocytes
rat primary hepatocytes [2] = test: MMP assay in rat primary hepatocytes; settings: for IC50: read-out: MMP assays IC50 (µM) Rat Hepatocytes
HepG2 cells [3] = settings: for IC50: read-out: MMP assays IC50 (µM) HepG2
HepG2 cells [4] = settings: cited from earlier work
[5] = read-out: MMP assays IC50 (µM) qHTS-HepG2
[6] = HepG2 cells, single number from one experiment
[7] = read-out: MMP assays IC50 (µM), qHTS-HepG2

| SMILES | MMP assays efficacy (%) Rat Hepatocytes (rat primary hepatocytes [1]) | MMP assays IC50 (µM) Rat Hepatocytes (rat primary hepatocytes [2]) | MMP assays IC50 (µM) HepG2 (HepG2 cells [3]) | MMP assays efficacy (%) HepG2 (HepG2 cells [3]) | MMP assays efficacy (%) qHTS-HepG2 (HepG2 cells [4]) | IC50 (HepG2 cells [4]; [5]) | IC50 (rat primary hepatocytes [2]; rat hepatocytes, mean ± SD of three experiments) | MMP assays efficacy (%) HepG2 (HepG2 cells [3]; [6]) | IC50 (HepG2 cells [3]; [6]) | IC50 (rat primary hepatocytes [2]) | IC50 (HepG2 cells [3]) | MMP assays IC50 (µM) qHTS-HepG2 (HepG2 cells [4]) | IC50 (rat primary hepatocytes [2]; Rattus norvegicus, Hepatocyte) | IC50 (HepG2 cells [4]; [7]) |
| --- | --- | --- | --- | --- | --- | --- | --- | --- | --- | --- | --- | --- | --- | --- |
| CC(C)(C)c1ccc(CN2CCN(C(c3ccccc3)c3ccc(Cl)cc3)CC2)cc1.Cl.Cl (stereo not drawn) [Buclizine dihydrochloride] | inactive | inactive | inactive | inactive | -52±10% | 32.2 ± 2.1 µM | – | – | – | – | – | – | – | – |
| Cl.Nc1ccc(/N=N/c2ccccc2)c(N)c1 [C.I. Basic orange 2] | -34±7% | – | – | – | -82±19% | 7.53 ± 5.61 µM | 24.9 ± 21.1 µM | -113% | 19.9 µM | – | – | – | – | – |
| Oc1ccc2ccccc2c1N=Nc1ccccc1 [C.I. Solvent yellow 14] | -86±4% | – | – | -110% | -69±8% | 5.84 ± 2.06 µM | – | – | – | 17 ± 10.6 µM | 15.8 µM | – | – | – |
| O=C1OC(=O)C2C1C1(Cl)C(Cl)=C(Cl)C2(Cl)C1(Cl)Cl (stereo not drawn) [Chlorendic anhydride] | inactive | inactive | inactive | inactive | inactive | – | – | – | – | – | – | inactive | – | – |
| CC1(COc2ccc(CC3SC(=O)NC3=O)cc2)CCCCC1 (stereo not drawn) [Ciglitizone] | -84±44% | – | – | -97% | -106±9% | 8.22 ± 1.6 µM | – | – | – | 9.92 ± 4.25 µM | 14.1 µM | – | – | – |
| O=[N+]([O-])c1cccc2ccccc12 [Compound 1-Nitronaphthalene] | -54±17% | – | inactive | inactive | -40±7% | 59.7 ± 7.06 µM | – | – | – | – | – | – | 45.9 ± 14.7 µM | – |
| COc1ccc(O)c(C(C)(C)C)c1 [Compound 2-tert-Butyl-4-methoxyphenol] | -53±11% | – | – | – | -92±3% | 25.3 ± 1.71 µM | – | – | – | 36.5 ± 19.2 µM | 35.5 µM | – | – | – |
| Nc1cccc(O)c1 [Compound 3-Aminophenol] | inactive | inactive | inactive | inactive | inactive | – | – | – | – | – | – | inactive | – | – |
| O=[N+]([O-])c1ccc2nc[nH]c2c1 [Compound 6-Nitrobenzimidazole] | inactive | inactive | inactive | inactive | -53±6% | 36.4 ± 10.8 µM | – | – | – | – | – | – | – | – |
| O=[N+]([O-])c1ccc2ncccc2c1 [Compound 6-Nitroquinoline] | -29±7% | – | inactive | inactive | -51±5% | 30.7 ± 11.5 µM | – | – | – | – | – | – | 44.8 ± 16.3 µM | – |
| N#Cc1c2ccccc2cc2ccccc12 [Compound 9-Cyanoanthracene] | -32±6% | – | inactive | inactive | -74±32% | 6.85 ± 18.1 µM | – | – | – | – | – | – | 18 ± 5.46 µM | – |
| Oc1cc2ccccc2c2ccccc12 [Compound 9-Phenanthrol] | -94±31% | – | – | -101% | -101±8% | 1.22 ± 0.56 µM | – | – | – | 47.3 ± 10.7 µM | 3.55 µM | – | – | – |
| CSc1nc(NC2CC2)nc(NC(C)(C)C)n1 [Cybutryne] | -69±43% | – | inactive | inactive | -81±18% | 20.9 ± 13.9 µM | – | – | – | 14.3 ± 16 µM | – | – | – | – |
| CC1(C)C(/C=C(\Cl)C(F)(F)F)C1C(=O)OC(C#N)c1cccc(Oc2ccccc2)c1 (stereo not drawn) [Cyhalothrin] | -55±25% | – | inactive | inactive | -73±14% | 33.6 ± 5.79 µM | – | – | – | – | – | – | 33.8 ± 9.96 µM | – |
| CCCCCCCCCCCC(=O)[O][Sn]([CH2]CCC)([CH2]CCC)[O]C(=O)CCCCCCCCCCC [Dibutyltin dilaurate] | -52+36% | – | – | -86% | inactive | – | – | – | – | 22.4 ± 7.17 µM | 27.5 µM | inactive | – | – |
| COc1ccc2c(=O)c(C)c(-c3ccccc3)oc2c1CN(C)C.Cl [Dimefline hydrochloride] | inactive | inactive | inactive | inactive | inactive | – | – | – | – | – | – | inactive | – | – |
| CCN1\C(=C/C=C/C=C/c2sc3ccccc3[n+]2CC)Sc2ccccc21.[Cl-] [Dithiazanine chloride] | -77±9% | – | – | -79% | -56±6% | 0.27 µM | – | – | – | 2.45 µM | 0.15 µM | – | – | – |
| Cc1ccc(-n2nc(C(C)(C)C)cc2NC(=O)Nc2ccc(OCCN3CCOCC3)c3ccccc23)cc1 [Doramapimod;BIBR-796?] | -77±5% | – | – | -69% | – | 21.1 ± 5.52 µM | – | – | – | 24.1 ± 9.54 µM | 21.8 µM | – | – | – |
| CN1C[C@H](C(=O)N[C@]2(C)O[C@@]3(O)[C@@H]4CCCN4C(=O)[C@H](Cc4ccccc4)N3C2=O)C=C2c3cccc4[nH]cc(c34)C[C@H]21 [Ergotamine D-tartrate] | inactive | inactive | inactive | inactive | -54±10% | 7.55 ± 1.06 µM | – | – | – | – | – | – | – | – |
| C[C@]12CC[C@@H]3c4ccc(O)cc4CC[C@H]3[C@@H]1CC[C@@H]2OP(=O)(O)O [Estradiol phosphate] | inactive | inactive | inactive | inactive | inactive | – | – | – | – | – | – | inactive | – | – |
| CC(=O)OCC(=O)[C@@]12OC(C)(C)O[C@@H]1C[C@H]1[C@@H]3C[C@H](F)C4=CC(=O)C=C[C@]4(C)[C@@]3(F)[C@@H](O)C[C@@]12C [Fluocinonide] | inactive | inactive | inactive | inactive | inactive | – | – | – | – | – | – | inactive | – | – |
| CC1(C)[C@@H](O)CC[C@]2(C)[C@H]3C(=O)C=C4[C@@H]5C[C@@](C)(C(=O)O)CC[C@]5(C)CC[C@@]4(C)[C@]3(C)CC[C@@H]12 [Glycyrrhetinic acid] | -44±24% | – | inactive | inactive | -88±53% | – | – | – | – | – | – | – | 15.6 ± 2.52 µM | 40.1 ± 9.34 µM |
| CC(=O)[C@]1(O)Cc2c(O)c3c(c(O)c2[C@@H](O[C@H]2C[C@H](N)[C@H](O)[C@H](C)O2)C1)C(=O)c1ccccc1C3=O [Idarubicin hydrochloride] | -38±9% | – | inactive | inactive | -124±48% | – | – | – | – | – | – | – | 27 ± 10.7 µM | 6.83 ± 1.46 µM |
| O=C1C(I)=CC(=C(c2cc(I)c(O)c(I)c2)c2ccccc2C(=O)O)C=C1I [Iodophthalein sodium] | -107±27% | – | – | -97% | -82±5% | – | – | – | – | 8.73 ± 1 µM | 6.9 µM | – | – | 10.8 ± 3.91 µM |
| CC(=O)O[C@H]1C[C@H](O[C@H]2[C@@H](O)C[C@H](O[C@H]3[C@@H](O)C[C@H](O[C@H]4CC[C@@]5(C)[C@H](CC[C@@H]6[C@@H]5CC[C@]5(C)[C@@H](C7=CC(=O)OC7)[C@@H](O)C[C@]65O)C4)O[C@@H]3C)O[C@@H]2C)O[C@H](C)[C@H]1O[C@@H]1O[C@H](CO)[C@@H](O)[C@H](O)[C@H]1O [Lanatoside B] | inactive | inactive | – | -96% | -68±14% | – | – | – | – | – | 0.69 µM | – | – | 1.1 ± 0.2 µM |
| Cc1cccc(C)c1OCC(=O)N[C@@H](Cc1ccccc1)[C@@H](O)C[C@H](Cc1ccccc1)NC(=O)[C@H](C(C)C)N1CCCNC1=O [Lopinavir;ABT-738] | -27±0% | – | inactive | inactive | -66±16% | – | – | – | – | 15.4 ± 21.8 µM | – | – | – | 32.7 ± 1.32 µM |
| CN(C)c1ccc(C(=C2C=CC(=[N+](C)C)C=C2)c2ccccc2)cc1.CN(C)c1ccc(C(=C2C=CC(=[N+](C)C)C=C2)c2ccccc2)cc1.O=C(O)C(=O)O.O=C([O-])C(=O)O.O=C([O-])C(=O)O [Malachite green oxalate] | -44±26% | – | – | -65% | -100±20% | – | – | – | – | 8.67 ± 12.3 µM | 27.5 µM | – | – | 2.1 ± 1.87 µM |
| Cc1cnc(NC(=O)C2=C(O)c3ccccc3S(=O)(=O)N2C)s1 [Meloxicam] | inactive | inactive | inactive | inactive | – | – | – | – | – | – | – | – | – | 14.5 µM |
